{
  "source": "patent US20250230193A1",
  "about": "“CYCLIC COMPOUND HAVING SELECTIVE KRAS INHIBITORY EFFECT ON HRAS AND NRAS” (CHUGAI SEIYAKU KABUSHIKI KAISHA, priority 2022, published 2025)",
  "key": {"[1]": {"molecular_target": "GDP-bound HRAS wild-type protein (Homo sapiens, UniProt P01112)", "sequence (P01112 whole entry)": "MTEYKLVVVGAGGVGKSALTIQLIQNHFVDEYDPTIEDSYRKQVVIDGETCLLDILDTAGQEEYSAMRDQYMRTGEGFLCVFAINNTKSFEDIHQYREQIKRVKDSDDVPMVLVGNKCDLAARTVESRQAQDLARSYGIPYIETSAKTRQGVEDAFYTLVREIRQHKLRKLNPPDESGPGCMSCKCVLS", "assay": "Binding to HRAS by surface plasmon resonance (SPR), Single Cycle Kinetics", "details": "SPR; for HRAS/KRAS (ratio of KD value with respect to HRAS to KD value with respect to KRAS) / HRAS/KRAS (ratio of KD value for HRAS to KD value for KRAS): GDP-bound HRAS wild-type vs GDP-bound KRAS wild-type"}, "[2]": {"molecular_target": "GDP-bound NRAS wild-type protein (Homo sapiens, UniProt P01111)", "sequence (P01111 whole entry)": "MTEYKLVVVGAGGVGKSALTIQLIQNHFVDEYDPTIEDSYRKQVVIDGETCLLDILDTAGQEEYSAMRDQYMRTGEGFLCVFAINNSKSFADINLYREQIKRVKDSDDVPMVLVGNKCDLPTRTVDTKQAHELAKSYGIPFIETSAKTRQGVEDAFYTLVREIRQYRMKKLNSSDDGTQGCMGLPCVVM", "assay": "Binding to NRAS by surface plasmon resonance (SPR), Single Cycle Kinetics", "details": "SPR; for NRAS/KRAS (ratio of KD value with respect to NRAS to KD value with respect to KRAS) / NRAS/KRAS (ratio of KD value for NRAS to KD value for KRAS): GDP-bound NRAS wild-type vs GDP-bound KRAS wild-type"}},
  "note": "Where a SMILES comes first, the peptide text is derived from it. Bridges are numbered along the chain shown (N, C = ends). [ ]: non-standard residue; d: D form. The star is where a group is joined. hPhe(3-Cl-4-CF3) = N[C@@H](CCc1ccc(C(F)(F)F)c(Cl)c1)C(=O)O; NPrPhe(4-CF3) = CCCN[C@@H](Cc1ccc(C(F)(F)F)cc1)C(=O)O; NMeGly(cPent) = CN[C@H](C(=O)O)C1CCCC1; Pro(4,4-F2) = O=C(O)[C@@H]1CC(F)(F)CN1; NMeD = CN[C@@H](CC(=O)O)C(=O)O; NMeL = CN[C@@H](CC(C)C)C(=O)O; Morpholide = C1CN(*)CCO1; Ac5c = NC1(C(=O)O)CCCC1; Ac4c = NC1(C(=O)O)CCC1; NEtG = CCNCC(=O)O; Sar = CNCC(=O)O",
  "data": [
    {"smiles": "CCCO[C@H](C)[C@@H]1NC(=O)[C@H](CC(C)C)N(C)C(=O)C[C@@H](C(=O)N(C)CC)N(C)C(=O)[C@H](C2CCCC2)N(C)C(=O)C2(CC(C)(C)C2)NC(=O)[C@@H]2C[C@H](C)CN2C(=O)[C@H](CCc2cc(F)c(C(F)(F)F)c(F)c2)NC(=O)CN(C)C(=O)[C@H](Cc2ccc(C)cc2)N2CC/C=C\\C[C@@H](C2=O)N(C)C(=O)CN(C)C1=O", "note": "[PP2417]", "values": [
      {"measurement": "HRAS/KRAS (ratio of KD value with respect to HRAS to KD value with respect to KRAS)", "setting": "[1]", "value": "A (a compound having 10 or more and less than 20 is denoted as A)"},
      {"measurement": "NRAS/KRAS (ratio of KD value with respect to NRAS to KD value with respect to KRAS)", "setting": "[2]", "value": "A (a compound having 10 or more and less than 20 is denoted as A)"}
    ]},
    {"smiles": "CCCN1C(=O)CN(C)C(=O)CNC(=O)[C@H]([C@@H](C)CC)NC(=O)[C@H](CC(C)C)N(C)C(=O)C[C@@H](C(=O)N2CCOCC2)NC(=O)[C@H](C2CCCC2)N(C)C(=O)C2(CCCC2)NC(=O)[C@@H]2CC(F)(F)CN2C(=O)[C@H](CCc2ccc(C(F)(F)F)c(Cl)c2)NC(=O)CN(C)C(=O)[C@@H]1Cc1ccc(C(F)(F)F)cc1", "note": "[PP0327] ([NMeL]IG[Sar][NPrPhe(4-CF3)][Sar][hPhe(3-Cl-4-CF3)][Pro(4,4-F2)][Ac5c][NMeGly(cPent)]D-Morpholide; lactam N-11)", "values": [
      {"measurement": "HRAS/KRAS (ratio of KD for GDP-bound HRAS wild-type to KD for KRAS)", "setting": "[1]; KD ratio HRAS/KRAS", "value": "B (a compound having 3 or more and less than 10 is denoted as B)"},
      {"measurement": "NRAS/KRAS (ratio of KD for GDP-bound NRAS wild-type to KD for KRAS)", "setting": "[2]; KD ratio NRAS/KRAS", "value": "B (a compound having 3 or more and less than 10 is denoted as B)"}
    ]},
    {"smiles": "CCCOC[C@H]1C(=O)N[C@@H]([C@@H](C)CC)C(=O)N(C)CC(=O)N(C)[C@H]2C/C=C\\CCN(C2=O)[C@@H](Cc2ccc(C)cc2)C(=O)N(C)CC(=O)N[C@@H](CCc2ccc(C(F)(F)F)c(Cl)c2)C(=O)N2C[C@H](OCC)C[C@H]2C(=O)NC2(CC(C)(C)C2)C(=O)N(C)[C@@H](C2CCCC2)C(=O)N(C)[C@H](C(=O)N(C)C)CC(=O)N1C", "note": "[PP2402]", "values": [
      {"measurement": "HRAS/KRAS (ratio of KD value with respect to HRAS to KD value with respect to KRAS)", "setting": "[1]", "value": "A (a compound having 10 or more and less than 20 is denoted as A)"},
      {"measurement": "NRAS/KRAS (ratio of KD value with respect to NRAS to KD value with respect to KRAS)", "setting": "[2]", "value": "A (a compound having 10 or more and less than 20 is denoted as A)"}
    ]},
    {"smiles": "CCCN1C(=O)CN(CC)C(=O)CN(C)C(=O)[C@H]([C@@H](C)CC)NC(=O)[C@H](CC(C)C)N(C)C(=O)C[C@@H](C(=O)N2CCOCC2)N(C)C(=O)[C@H](C2CCCC2)N(C)C(=O)C2(CCC2)NC(=O)[C@@H]2CCCN2C(=O)[C@H](CCc2ccc(C(F)(F)F)c(Cl)c2)NC(=O)CN(C)C(=O)[C@@H]1Cc1ccc(C(F)(F)F)cc1", "note": "[PP1948] ([NMeL]I[Sar][NEtG][NPrPhe(4-CF3)][Sar][hPhe(3-Cl-4-CF3)]P[Ac4c][NMeGly(cPent)][NMeD]-Morpholide; lactam N-11)", "values": [
      {"measurement": "HRAS/KRAS (ratio of KD value for HRAS to KD value for KRAS)", "setting": "[1]; KD ratio", "value": "C (A compound having a KD ratio of 0.1 or more and less than 3 is denoted as C)"},
      {"measurement": "NRAS/KRAS (ratio of KD value for NRAS to KD value for KRAS)", "setting": "[2]; KD ratio", "value": "C (A compound having a KD ratio of 0.1 or more and less than 3 is denoted as C)"}
    ]},
    {"smiles": "CCO[C@@H]1C[C@H]2C(=O)NC3(CCC3)C(=O)N(C)[C@@H](C3CCCC3)C(=O)N(C)[C@H](C(=O)N(C)C)CC(=O)N(C)[C@@H](CC)C(=O)N[C@@H]([C@@H](C)CC)C(=O)N(C)CC(=O)N(C)[C@H]3C/C=C\\CCN(C3=O)[C@@H](Cc3ccc(C(F)(F)F)cc3)C(=O)N(C)CC(=O)N[C@@H](CCc3cc(F)c(C(F)(F)F)c(F)c3)C(=O)N2C1", "note": "[PP0824]", "values": [
      {"measurement": "HRAS/KRAS (ratio of KD value with respect to HRAS to KD value with respect to KRAS)", "setting": "[1]; KD ratio", "value": "A (a compound having 10 or more and less than 20 is denoted as A)"},
      {"measurement": "NRAS/KRAS (ratio of KD value with respect to NRAS to KD value with respect to KRAS)", "setting": "[2]; KD ratio", "value": "A (a compound having 10 or more and less than 20 is denoted as A)"}
    ]},
    {"smiles": "CC[C@H](C)[C@@H]1NC(=O)[C@H](CC)N(C)C(=O)C[C@@H](C(=O)N(C)C)N(C)C(=O)[C@H](C2CCCC2)N(C)C(=O)C2(CC(C)(C)C2)NC(=O)[C@@H]2C[C@H](C)CN2C(=O)[C@H](CCc2cc(F)c(C(F)(F)F)c(F)c2)NC(=O)CN(C)C(=O)[C@H](Cc2ccc(C)cc2)N2CC/C=C\\C[C@@H](C2=O)N(C)C(=O)CN(C)C1=O", "note": "[PP1856]", "values": [
      {"measurement": "HRAS/KRAS (ratio of KD value for HRAS to KD value for KRAS)", "setting": "[1]; KD ratio", "value": "A (a compound having 10 or more and less than 20 is denoted as A)"},
      {"measurement": "NRAS/KRAS (ratio of KD value for NRAS to KD value for KRAS)", "setting": "[2]; KD ratio", "value": "A (a compound having 10 or more and less than 20 is denoted as A)"}
    ]},
    {"smiles": "CCO[C@H](C)[C@@H]1NC(=O)[C@H](CC(C)C)N(C)C(=O)C[C@@H](C(=O)N(C)CC)N(C)C(=O)[C@H](C2CCCC2)N(C)C(=O)C2(CC(C)(C)C2)NC(=O)[C@@H]2C[C@H](C)CN2C(=O)[C@H](CCc2ccc(C(F)(F)F)c(OC)c2)NC(=O)CN(C)C(=O)[C@H](Cc2ccc(C)cc2)N2CC/C=C\\C[C@@H](C2=O)N(C)C(=O)CN(C)C1=O", "note": "[PP2413]", "values": [
      {"measurement": "HRAS/KRAS (ratio of KD value with respect to HRAS to KD value with respect to KRAS)", "setting": "[1]", "value": "A (a compound having 10 or more and less than 20 is denoted as A)"},
      {"measurement": "NRAS/KRAS (ratio of KD value with respect to NRAS to KD value with respect to KRAS)", "setting": "[2]", "value": "A (a compound having 10 or more and less than 20 is denoted as A)"}
    ]}
  ]
}
